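The compound was tested at five concentrations on cells cultured in 96-well plates, with a 48-hour exposure period. GI50 = concentration required for 50% inhibition of growth.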 Calls of active or inactive are those of the source. Cut-off read from the data, not from the text of the source: active = GI50 up to about 1.1 µM and inactive = higher.
Assays:
Test in all cases: growth of human tumour cells (NCI), 48 h
[1] = test system: SW-620
[2] = test system: Hs-578T
[3] = test system: U-251
[4] = test system: Malme-3M
[5] = test system: MDA-MB-435
[6] = test system: HCT-15
[7] = test system: HCT-116
[8] = test system: CAKI-1
[9] = test system: SR
[10] = test system: SNB-75
[11] = test system: SF-295
[12] = test system: HCC 2998
[13] = test system: OVCAR-3
[14] = test system: HL-60
[15] = test system: A549
[16] = test system: SF-539
[17] = test system: SK-MEL-5
[18] = test system: MOLT-4
[19] = test system: COLO 205

Row | Compound | GI50 [1] | GI50 [2] | GI50 [3] | GI50 [4] | GI50 [5] | GI50 [6] | GI50 [7] | GI50 [8] | GI50 [9] | GI50 [10] | GI50 [11] | GI50 [12] | GI50 [13] | GI50 [14] | GI50 [15] | GI50 [16] | GI50 [17] | GI50 [18] | GI50 [19]
1 | CC(C)C(C/C=C1\CC(CO)(COC(=O)CC(C(C)C)C(C)C)OC1=O)C(C)C (stereo not drawn) | 7.46 µM (inactive) | 3.8 µM (inactive) | 13.8 µM (inactive) | 1.45 µM (inactive) | 7.06 µM (inactive) | 18.5 µM | 14.1 µM (inactive) | 6.87 µM (inactive) | 12.4 µM (inactive) | 10.4 µM (inactive) | 4.62 µM (inactive) | 5.96 µM (inactive) | 15.6 µM (inactive) | 2.74 µM (inactive) | 3.72 µM (inactive) | 18.3 µM (inactive) | 11 µM (inactive) | 1.05 µM (active) | 1.49 µM (inactive)
2 | CC(C)C1=C(O)C(=O)C2=C(C1=O)C(O)CC1C(C)(C)CCCC21C (stereo not drawn) | 3.52 µM (inactive) | 3.88 µM (inactive) | 4.8 µM (inactive) | 3.87 µM (inactive) | 3.4 µM (inactive) | 3.71 µM | 4.26 µM (inactive) | 8.05 µM (inactive) | 4 µM (inactive) | 30.2 µM (inactive) | 21.7 µM (inactive) | 3.58 µM (inactive) | 11.4 µM (inactive) | 14.9 µM (inactive) | 4.56 µM (inactive) | 16.9 µM (inactive) | 2.43 µM (inactive) | 25.8 µM (inactive) | 12.8 µM (inactive)
3 | CN(C)c1ccc(/C=C(\NC(=O)c2ccccc2)C(=O)Nc2ccccc2C(=O)NN2C(=O)CSC2c2ccc(N(C)C)cc2)cc1 (stereo not drawn) | > 100 µM (inactive) | > 100 µM (inactive) | > 100 µM (inactive) | > 100 µM (inactive) | 66.5 µM (inactive) | 92.7 µM | > 100 µM (inactive) | > 100 µM (inactive) | > 100 µM (inactive) | > 100 µM (inactive) | > 100 µM (inactive) | 6.37 µM (inactive) | > 100 µM (inactive) | > 100 µM (inactive) | > 100 µM (inactive) | 79.8 µM (inactive) | 94.6 µM (inactive) | > 100 µM (inactive) | > 100 µM (inactive)
4 | O=S1(=O)OCCOS(=O)(=O)C1(F)Cc1ccccc1 | > 100 µM (inactive) | > 100 µM (inactive) | > 100 µM (inactive) | > 100 µM (inactive) | > 100 µM (inactive) | > 100 µM | > 100 µM (inactive) | > 100 µM (inactive) | > 100 µM (inactive) | > 100 µM (inactive) | > 100 µM (inactive) | > 100 µM (inactive) | > 100 µM (inactive) | > 100 µM (inactive) | > 100 µM (inactive) | > 100 µM (inactive) | > 100 µM (inactive) | > 100 µM (inactive) | > 100 µM (inactive)
5 | Cc1ccc(C2=Nc3cc(C)c(Cl)cc3S(=O)(=O)NN2)cc1 | > 100 µM (inactive) | > 100 µM (inactive) | > 100 µM (inactive) | > 100 µM (inactive) | > 100 µM (inactive) | > 100 µM | > 100 µM (inactive) | 27.9 µM (inactive) | 20 µM (inactive) | > 100 µM (inactive) | > 100 µM (inactive) | > 100 µM (inactive) | > 100 µM (inactive) | 34.4 µM (inactive) | 57.8 µM (inactive) | > 100 µM (inactive) | > 100 µM (inactive) | 37.9 µM (inactive) | > 100 µM (inactive)
6 | CCOC(=O)C(NCc1cccc(C(F)(F)F)c1)(NC(=O)CC)C(F)(F)F (stereo not drawn) | > 100 µM (inactive) | > 100 µM (inactive) | > 100 µM (inactive) | > 100 µM (inactive) | > 100 µM (inactive) | > 100 µM | > 100 µM (inactive) | > 100 µM (inactive) | > 100 µM (inactive) | 63.5 µM (inactive) | > 100 µM (inactive) | > 100 µM (inactive) | > 100 µM (inactive) | 58.5 µM (inactive) | 44.2 µM (inactive) | > 100 µM (inactive) | > 100 µM (inactive) | 82.6 µM (inactive) | > 100 µM (inactive)
7 | C=CCn1c(-c2ccc(Cl)cc2Cl)cs/c1=N\c1c(C)n(C)n(-c2ccccc2)c1=O | 15.8 µM (inactive) | 16.1 µM (inactive) | 12.5 µM (inactive) | 15.9 µM (inactive) | 10.9 µM (inactive) | 13.7 µM | 7.24 µM (inactive) | 14.4 µM (inactive) | 5.36 µM (inactive) | 8.47 µM (inactive) | 6.9 µM (inactive) | 15.3 µM (inactive) | 10.7 µM (inactive) | 6.11 µM (inactive) | 9.44 µM (inactive) | 14.8 µM (inactive) | 3.04 µM (inactive) | 4.32 µM (inactive) | 12.3 µM (inactive)
